Values joined by “and” are separate entries in the source; they are usually repeats but may differ in a detail not shown here. Equal values may be shown once.
What was measured:
Format in all cases: cell-based
MCF-10A = test: Peptide array-whole cell binding assay; conditions: non-tumorigenic cells; peptide conjugated to cellulose membrane (amino-PEG500); cells 75 × 10^3 cells/mL, 37 °C, 4 h; CyQUANT fluorescence relative to peptide 1; spots in duplicate
Excerpt: (§1) Peptide array on the cellulose membrane was used to evaluate the binding of each peptide to different cell lines. The amino functionalized cellulose membrane provided by Intavis is acid hardened providing high stability at pH range from 1–14, permitting its use in acidic or basic conditions while maintaining membrane integrity. The PEG linker on membrane surface functions as a hydrophilic spacer between the peptide and the solid surface (membrane) reducing background signal. Cell lines were carefully selected for screening peptides as our goal here is to screen peptides with high binding/uptake by the TNBC cells. […] EGFR is overexpressed by a number of TNBC cells such as MDA-MB-468 (obtained from primary tumor source) and MDA-MB-231 (from metastasis cancer tissue)[13],[14]. While other TNBC cells like MDA-MB-436 (obtained from metastasis cancer tissue) are known to express low levels of EGFR. Non-tumorigenic epithelial MCF10A and MCF12A cells derived from the breast tissue also express low levels of EGFR[14],[34]. We selected two TNBC cell lines with relatively high expression of EGFR expression (MDA-MB-468/231) and a TNBC cell line with low level of EGFR expression (MDA-MB-436) for the peptide array screening experiments. In addition, non- tumorigenic cell line, MCF-10A was used for comparison. These four cell lines were allowed to bind the membrane by seeding the cells on the membrane and the bound cells were labeled with a fluorescent dye CyQUANT.
(§2) For the binding assay, the peptide array was incubated with the cells in sequential steps as described previously. Briefly peptide array membrane was dipped in ethanol for 30 s to remove any precipitation on it, followed by dipping in sterile PBS (pH 7.4) for another 30 min. The cells (75 × 10^3 cells/mL) were seeded directly on the membrane in a sterile plate and incubated at 37 °C for 4 h. The unbound cells were washed out with sterile PBS (pH 7.4). Thereafter the membrane was placed in a sealed bag and transferred to −80 °C freezer for 2 h. Subsequently it was defrosted at room temperature and treated with CyQUANT solution. The CyQUANT concentration was optimized based on the manufacturer’s protocol and preliminary experiments. Membrane was incubated at 37 °C for 30 min with the dye. After washing with sterile PBS and air drying using blow dryer, the membrane was scanned using Bio-rad chemidoc imager with image lab software. The settings were adjusted based on the excitation (465 nm) and emission (535 nm) wavelengths of CyQUANT dye. Epi Blue was selected for the light source (455–485 nm) and filter number 4 (blue filter, 518–546 nm) was employed. The fluorescence intensity of cancer cells read using chemidoc imager was normalized using the non-cancer cell fluorescence intensity. Eventually relative fluorescence was assessed to select peptides with high affinity to cancer cells and low or minimal binding to normal cells.

MDA-MB-231 [1] = test: Peptide array-whole cell binding assay; conditions: peptide conjugated to cellulose membrane (amino-PEG500), no free C-terminus; cells 75 × 10^3 cells/mL, 37 °C, 4 h; CyQUANT fluorescence relative to peptide 1; spots in duplicate
Excerpt: as §1, §2

MDA-MB-436 [2] = test: Peptide array-whole cell binding assay; conditions: peptide conjugated to cellulose membrane (amino-PEG500), no free C-terminus; cells 75 × 10^3 cells/mL, 37 °C, 4 h; CyQUANT fluorescence relative to peptide 1; spots in duplicate
Excerpt: as §1, §2

MDA-MB-468 [3] = test: Peptide array-whole cell binding assay; conditions: peptide conjugated to cellulose membrane (amino-PEG500), no free C-terminus; cells 75 × 10^3 cells/mL, 37 °C, 4 h; CyQUANT fluorescence relative to peptide 1; spots in duplicate
Excerpt: as §1, §2

MDA-MB-231 [4] = test: In vitro cellular uptake of FITC-labeled peptides by FACS; conditions: soluble FITC-β-alanine-labeled peptide 1 µM, 30 min, 37 °C, FBS free media, 10^5 or 10^6 cells/well, MFI of FITC positive cells, three independent experiments ± SD
Excerpt: (§3) Flow cytometry was employed to determine the cellular uptake of selected six peptides (1, 4, 22, 23, 26, and 27). As opposed to the membrane bound (conjugated) peptide in library screening, the peptides used here were soluble (or free) FITC-labeled peptides. Peptides were labeled with FITC in the N-terminal and a β-alanine residue was used as a spacer between the FITC and the peptide sequence. The same three TNBC cells lines (MDA-MB-468, MDA-MB-231 and MDA-MB-436) used for peptide array screening were used here as well. Peptides 1 and 4 were used as controls. […] Peptide 4 was included in this experiment to compare the uptake of this keratin 1 binding peptide with the EGFR binding peptides. Peptides 22, 23, 26, and 27 were identified as the best EGFR binding peptides from the library screening.
(§4) Fluorescence-activated cell-sorting (FACS) analysis was used to check the uptake of the FITC-peptides. The stock solution for the FITC-peptides (100 μM) was prepared by dissolving the peptides in sterile water/10% DMSO. MDA-MB-231, MDA-MB-468 and MDA-MB-436 cells were seeded in 6-well plates with 10^6/10^5 cells/well containing 3 mL media and the plates were incubated at 37 °C overnight. The following day, the media was replaced with fresh FBS free media (1 mL) containing FITC-labeled peptide (1 µM), and further incubated at 37 °C for 30 min. Thereafter the media was removed and the cells were washed with cold PBS to remove any remaining peptide. Adequate trypsin was added to each well followed by 3–5 min incubation at 37 °C. Trypsin was immediately neutralized by adding media and the cell suspension was transferred into centrifuge tubes. The cells were separated and washed twice with FACS sheath fluid. The control cells were treated similarly but without peptide. Two wells were assigned for each peptide and each well sample was read twice in FACS machine. The experiment was repeated once. MFI represents the average of all wells for each peptide.

MDA-MB-436 [5] = test: as above; conditions: soluble FITC-β-alanine-labeled peptide 1 µM, 30 min, 37 °C, FBS free media, 10^5 or 10^6 cells/well, MFI of FITC positive cells, three independent experiments ± SD
Excerpt: as §3, §4

MDA-MB-468 [6] = test: as above; conditions: soluble FITC-β-alanine-labeled peptide 1 µM, 30 min, 37 °C, FBS free media, 10^5 or 10^6 cells/well, MFI of FITC positive cells, three independent experiments ± SD
Excerpt: as §3, §4

Substance | Relative Cell Adhesion MCF-10A (MCF-10A) | Relative Cell Adhesion MDA-MB-231 (MDA-MB-231 [1]) | Relative Cell Adhesion MDA-MB-436 (MDA-MB-436 [2]) | Relative Cell Adhesion MDA-MB-468 (MDA-MB-468 [3]) | Mean Fluorescence Intensity ± SD MDA-MB-231 (MDA-MB-231 [4]) | Mean Fluorescence Intensity ± SD MDA-MB-436 (MDA-MB-436 [5]) | Mean Fluorescence Intensity ± SD MDA-MB-468 (MDA-MB-468 [6])
AHWYGYTPQNVI [Peptide 6] | 1.1 | 1.3 | 1.0 | 1.2 |  |  | 
FHWYGYTPQNVI [Peptide 28] | 1.2 | 1.5 | 0.8 | 1.2 |  |  | 
HWYGYTPQNVI [Peptide 20] | 1.2 | 1.5 | 1.0 | 1.2 |  |  | 
Peptide 2: scrambled negative control sequence WQTNYIHPYVYG | 1.0 | 1.2 | 1.1 | 1.1 |  |  | 
Peptide 4: positive control peptide p160, VPWXEPAYQRFL, binds keratin 1 [reference compound] | 1.2 | 1.3 | 1.1 | 1.1 | 4791 ± 354 | 305 ± 58 | 23741 and 23741 ± 3068
WXEAAYQRFL [Peptide 5, positive control, peptide 18 from a previous study, WXEAAYQRFL, reference compound] | 1.7 | 1.7 | 1.8 | 1.3 |  |  | 
WYGYTPQNVI [Peptide 21] | 1.2 | 1.9 | 1.0 | 1.4 |  |  | 
YAWYGYTPQNVI [Peptide 7] | 1.0 | 1.1 | 1.0 | 1.1 |  |  | 
YGPWYNHYITQV [Peptide 3] | 1.0 | 1.1 | 1.1 | 1.0 |  |  | 
YHAYGYTPQNVI [Peptide 8] | 0.9 | 1.0 | 0.9 | 0.8 |  |  | 
YHWAGYTPQNVI [Peptide 9] | 1.0 | 1.4 | 1.2 | 1.3 |  |  | 
YHWFGYTPQNVI [Peptide 29] | 1.1 | 1.7 | 1.1 | 1.2 |  |  | 
YHWYAYTPQNVI [Peptide 10] | 1.1 | 1.5 | 1.2 | 1.3 |  |  | 
YHWYGATPQNVI [Peptide 11] | 1.0 | 1.3 | 1.0 | 1.2 |  |  | 
YHWYGFTPQNVI [Peptide 30] | 1.0 | 1.5 | 0.9 | 1.3 |  |  | 
YHWYGYAPQNVI [Peptide 12] | 1.1 | 1.3 | 1.0 | 1.0 |  |  | 
YHWYGYTAQNVI [Peptide 13] | 1.1 | 1.5 | 1.1 | 1.3 |  |  | 
YHWYGYTPANVI [Peptide 14] | 1.2 | 1.7 | 1.2 | 1.4 |  |  | 
YHWYGYTPKNVI [Peptide 26] | 0.8 | 1.6 | 1.0 | 1.3 | 1877 ± 67 | 16 ± 18 | 6457 ± 557
YHWYGYTPQAVI [Peptide 15] | 1.1 | 1.6 | 0.9 | 1.2 |  |  | 
YHWYGYTPQDVI [Peptide 23] | 1.4 | 2.8 | 1.0 | 1.6 | 1631 ± 110 | 36 ± 14 | 4661 ± 883
YHWYGYTPQKVI [Peptide 27] | 1.0 | 1.8 | 1.0 | 1.2 | 1683 ± 163 | 21 ± 17 | 5248 ± 407
YHWYGYTPQN [Peptide 19] | 1.1 | 2.0 | 1.1 | 1.3 |  |  | 
YHWYGYTPQNAI [Peptide 16] | 1.2 | 1.4 | 1.0 | 1.1 |  |  | 
YHWYGYTPQNV [Peptide 18] | 1.2 | 1.9 | 1.3 | 1.4 |  |  | 
YHWYGYTPQNVA [Peptide 17] | 1.2 | 1.6 | 1.2 | 1.4 |  |  | 
YKWYGYTPQNVI [Peptide 24] | 1.0 | 1.4 | 1.0 | 1.1 |  |  | 
YRWYGYTPQNVI [Peptide 25] | 1.2 | 1.9 | 1.0 | 1.4 |  |  | 

Reference: publication PMC6389950, “Small Peptide Ligands for Targeting EGFR in Triple Negative Breast Cancer Cells” (Scientific Reports, 2019)
